PubChem BioAssay (NCI)
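Results reflect a 48-hour exposure of cells in 96-well plates to compound at five concentrations. The concentration for full growth arrest is given as TGI.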

How the values were obtained:
Test in all cases: growth of human tumour cells (NCI), 48 h
MDA-MB-231 breast = tested on: MDA-MB-231 breast
K-562 leukemia = tested on: K-562 leukemia
UACC-257 melanoma = tested on: UACC-257 melanoma
UO-31 renal = tested on: UO-31 renal
HCT-15 colon = tested on: HCT-15 colon
786-0 renal = tested on: 786-0 renal
NCI-H226 lung = tested on: NCI-H226 lung
CAKI-1 renal = tested on: CAKI-1 renal
RPMI-8226 leukemia = tested on: RPMI-8226 leukemia
LOX IMVI melanoma = tested on: LOX IMVI melanoma
OVCAR-4 ovarian = tested on: OVCAR-4 ovarian
SF-268 CNS = tested on: SF-268 CNS
RXF 393 renal = tested on: RXF 393 renal
HS 578T breast = tested on: HS 578T breast
SF-295 CNS = tested on: SF-295 CNS
HCT-116 colon = tested on: HCT-116 colon
SW-620 colon = tested on: SW-620 colon
MALME-3M melanoma = tested on: MALME-3M melanoma
OVCAR-8 ovarian = tested on: OVCAR-8 ovarian
EKVX NSCLC = tested on: EKVX NSCLC
SN12C renal = tested on: SN12C renal
IGROV1 ovarian = tested on: IGROV1 ovarian
SNB-19 CNS = tested on: SNB-19 CNS
NCI-H460 lung = tested on: NCI-H460 lung
MOLT-4 leukemia = tested on: MOLT-4 leukemia
HOP-62 NSCLC = tested on: HOP-62 NSCLC
SK-OV-3 ovarian = tested on: SK-OV-3 ovarian
U251 CNS = tested on: U251 CNS
SK-MEL-2 melanoma = tested on: SK-MEL-2 melanoma
PC-3 prostate = tested on: PC-3 prostate
MDA-N = tested on: MDA-N
NCI/ADR-RES ovarian = tested on: NCI/ADR-RES ovarian
SF-539 CNS = tested on: SF-539 CNS
DU-145 prostate = tested on: DU-145 prostate
SK-MEL-5 melanoma = tested on: SK-MEL-5 melanoma
MCF7 breast = tested on: MCF7 breast
OVCAR-3 ovarian = tested on: OVCAR-3 ovarian
HT29 colon = tested on: HT29 colon
HOP-92 NSCLC = tested on: HOP-92 NSCLC
NCI-H23 lung = tested on: NCI-H23 lung
KM12 colon = tested on: KM12 colon
HCC-2998 colon = tested on: HCC-2998 colon
M14 melanoma = tested on: M14 melanoma
OVCAR-5 ovarian = tested on: OVCAR-5 ovarian
BT-549 breast = tested on: BT-549 breast
COLO 205 colon = tested on: COLO 205 colon
A549 NSCLC = tested on: A549 NSCLC
MDA-MB-435 = tested on: MDA-MB-435
SNB-75 CNS = tested on: SNB-75 CNS
T-47D breast = tested on: T-47D breast
UACC-62 melanoma = tested on: UACC-62 melanoma
CCRF-CEM leukemia = tested on: CCRF-CEM leukemia
TK-10 renal = tested on: TK-10 renal
NCI-H522 lung = tested on: NCI-H522 lung
A498 renal = tested on: A498 renal
ACHN renal = tested on: ACHN renal
HL-60(TB) leukemia = tested on: HL-60(TB) leukemia
SK-MEL-28 melanoma = tested on: SK-MEL-28 melanoma
SR leukemia = tested on: SR leukemia

CCCc1cc(=O)oc2c3c(c4c(c12)OC(C)(C)CC4)O[C@H](C)[C@@H](C)[C@H]3O
TGI (MDA-MB-231 breast): 30.9 µM
TGI (K-562 leukemia): 21.1 µM
TGI (UACC-257 melanoma): 28.1 µM
TGI (UO-31 renal): 26.7 µM
TGI (HCT-15 colon): 27.5 µM
TGI (786-0 renal): 29.8 µM
TGI (NCI-H226 lung): 34.2 µM
TGI (CAKI-1 renal): 35.1 µM
TGI (RPMI-8226 leukemia): 18.8 µM
TGI (LOX IMVI melanoma): 31.7 µM
TGI (OVCAR-4 ovarian): 28.6 µM
TGI (SF-268 CNS): 35.1 µM
TGI (RXF 393 renal): 47.3 µM
TGI (HS 578T breast): 50.2 µM
TGI (SF-295 CNS): 32 µM
TGI (HCT-116 colon): 29.4 µM
TGI (SW-620 colon): 35.8 µM
TGI (MALME-3M melanoma): 37.9 µM
TGI (OVCAR-8 ovarian): 32.6 µM
TGI (EKVX NSCLC): 26.2 µM
TGI (SN12C renal): 34.3 µM
TGI (IGROV1 ovarian): 30.8 µM
TGI (SNB-19 CNS): 32.2 µM
TGI (NCI-H460 lung): 41.7 µM
TGI (MOLT-4 leukemia): 27.8 µM
TGI (HOP-62 NSCLC): 35.3 µM
TGI (SK-OV-3 ovarian): 31.7 µM
TGI (U251 CNS): 32.2 µM
TGI (SK-MEL-2 melanoma): 49.1 µM
TGI (PC-3 prostate): 23.5 µM
TGI (MDA-N): 23.7 µM
TGI (NCI/ADR-RES ovarian): 33.1 µM
TGI (SF-539 CNS): 41.9 µM
TGI (DU-145 prostate): 29.8 µM
TGI (SK-MEL-5 melanoma): 29.3 µM
TGI (MCF7 breast): 43.2 µM
TGI (OVCAR-3 ovarian): 37.7 µM
TGI (HT29 colon): 22.7 µM
TGI (HOP-92 NSCLC): 33.3 µM
TGI (NCI-H23 lung): 30.3 µM
TGI (KM12 colon): 28.7 µM
TGI (HCC-2998 colon): 31.8 µM
TGI (M14 melanoma): 37.2 µM
TGI (OVCAR-5 ovarian): 31.6 µM
TGI (BT-549 breast): 26.6 µM
TGI (COLO 205 colon): 33.6 µM
TGI (A549 NSCLC): 64 µM
TGI (MDA-MB-435): 25.7 µM
TGI (SNB-75 CNS): 31.3 µM
TGI (T-47D breast): 29.8 µM
TGI (UACC-62 melanoma): 27.4 µM
TGI (CCRF-CEM leukemia): 33.8 µM

Cc1ccc2nc(NC(=O)C(=O)C3C(=O)NC(=S)NC3=O)sc2c1
TGI (MDA-MB-231 breast): > 100 µM
TGI (UACC-257 melanoma): > 100 µM
TGI (TK-10 renal): > 100 µM
TGI (UO-31 renal): > 100 µM
TGI (HCT-15 colon): > 100 µM
TGI (786-0 renal): > 100 µM
TGI (NCI-H522 lung): > 100 µM
TGI (NCI-H226 lung): > 100 µM
TGI (CAKI-1 renal): > 100 µM
TGI (RPMI-8226 leukemia): > 100 µM
TGI (A498 renal): > 100 µM
TGI (LOX IMVI melanoma): > 100 µM
TGI (OVCAR-4 ovarian): > 100 µM
TGI (SF-268 CNS): > 100 µM
TGI (RXF 393 renal): > 100 µM
TGI (HS 578T breast): > 100 µM
TGI (SF-295 CNS): > 100 µM
TGI (HCT-116 colon): > 100 µM
TGI (SW-620 colon): > 100 µM
TGI (ACHN renal): > 100 µM
TGI (MALME-3M melanoma): > 100 µM
TGI (OVCAR-8 ovarian): > 100 µM
TGI (EKVX NSCLC): > 100 µM
TGI (SN12C renal): > 100 µM
TGI (IGROV1 ovarian): > 100 µM
TGI (SNB-19 CNS): > 100 µM
TGI (NCI-H460 lung): > 100 µM
TGI (MOLT-4 leukemia): > 100 µM
TGI (HOP-62 NSCLC): > 100 µM
TGI (SK-OV-3 ovarian): > 100 µM
TGI (HL-60(TB) leukemia): > 100 µM
TGI (U251 CNS): > 100 µM
TGI (SK-MEL-2 melanoma): > 100 µM
TGI (PC-3 prostate): > 100 µM
TGI (MDA-N): > 100 µM
TGI (NCI/ADR-RES ovarian): > 100 µM
TGI (SF-539 CNS): > 100 µM
TGI (SK-MEL-28 melanoma): > 100 µM
TGI (SK-MEL-5 melanoma): > 100 µM
TGI (MCF7 breast): > 100 µM
TGI (OVCAR-3 ovarian): > 100 µM
TGI (HT29 colon): > 100 µM
TGI (HOP-92 NSCLC): > 100 µM
TGI (NCI-H23 lung): > 100 µM
TGI (KM12 colon): > 100 µM
TGI (HCC-2998 colon): > 100 µM
TGI (M14 melanoma): > 100 µM
TGI (OVCAR-5 ovarian): > 100 µM
TGI (BT-549 breast): > 100 µM
TGI (A549 NSCLC): > 100 µM
TGI (MDA-MB-435): > 100 µM
TGI (SNB-75 CNS): > 100 µM
TGI (T-47D breast): > 100 µM
TGI (UACC-62 melanoma): > 100 µM
TGI (CCRF-CEM leukemia): > 100 µM

O=C(O)C1CCCN1C(=O)c1cc(Cl)ccn1 (centres undefined)
TGI (K-562 leukemia): > 100 µM
TGI (UACC-257 melanoma): > 100 µM
TGI (TK-10 renal): > 100 µM
TGI (UO-31 renal): > 100 µM
TGI (HCT-15 colon): > 100 µM
TGI (786-0 renal): > 100 µM
TGI (NCI-H522 lung): > 100 µM
TGI (NCI-H226 lung): > 100 µM
TGI (CAKI-1 renal): > 100 µM
TGI (RPMI-8226 leukemia): > 100 µM
TGI (A498 renal): > 100 µM
TGI (LOX IMVI melanoma): > 100 µM
TGI (OVCAR-4 ovarian): > 100 µM
TGI (SR leukemia): > 100 µM
TGI (SF-268 CNS): > 100 µM
TGI (RXF 393 renal): > 100 µM
TGI (HS 578T breast): > 100 µM
TGI (SF-295 CNS): > 100 µM
TGI (HCT-116 colon): > 100 µM
TGI (SW-620 colon): > 100 µM
TGI (ACHN renal): > 100 µM
TGI (MALME-3M melanoma): > 100 µM
TGI (OVCAR-8 ovarian): > 100 µM
TGI (EKVX NSCLC): > 100 µM
TGI (SN12C renal): > 100 µM
TGI (IGROV1 ovarian): > 100 µM
TGI (SNB-19 CNS): > 100 µM
TGI (NCI-H460 lung): > 100 µM
TGI (MOLT-4 leukemia): > 100 µM
TGI (HOP-62 NSCLC): > 100 µM
TGI (HL-60(TB) leukemia): > 100 µM
TGI (U251 CNS): > 100 µM
TGI (SK-MEL-2 melanoma): > 100 µM
TGI (PC-3 prostate): > 100 µM
TGI (MDA-N): > 100 µM
TGI (NCI/ADR-RES ovarian): > 100 µM
TGI (SF-539 CNS): > 100 µM
TGI (SK-MEL-28 melanoma): > 100 µM
TGI (DU-145 prostate): > 100 µM
TGI (SK-MEL-5 melanoma): > 100 µM
TGI (MCF7 breast): > 100 µM
TGI (OVCAR-3 ovarian): > 100 µM
TGI (HT29 colon): > 100 µM
TGI (HOP-92 NSCLC): > 100 µM
TGI (NCI-H23 lung): > 100 µM
TGI (KM12 colon): > 100 µM
TGI (HCC-2998 colon): > 100 µM
TGI (M14 melanoma): > 100 µM
TGI (OVCAR-5 ovarian): > 100 µM
TGI (BT-549 breast): > 100 µM
TGI (COLO 205 colon): > 100 µM
TGI (A549 NSCLC): > 100 µM
TGI (MDA-MB-435): > 100 µM
TGI (SNB-75 CNS): > 100 µM
TGI (T-47D breast): > 100 µM
TGI (UACC-62 melanoma): > 100 µM
TGI (CCRF-CEM leukemia): > 100 µM
